Reference: patent publication US8853230B2, “Inhibitors of JAK” (Portola Pharmaceuticals, Inc., priority 2009, dated 2014)

Key:
Syk = Syk (Homo sapiens, UniProt P43405); test: Syk IC50 (Table 1; method not given); format: biochemical
TYK2 = target: T1, TYK2 (Homo sapiens, UniProt P29597); test: Z'-LYTE kinase assay, TYK2 tyrosine phosphorylation activity; format: biochemical
T1 construct: 5 μl of catalytic domain recombinant Kinase enzyme+Tyr peptide substrate (Invitrogen, Calif.); purchased Invitrogen
T1 sequence (P29597 897-1176 limits assumed): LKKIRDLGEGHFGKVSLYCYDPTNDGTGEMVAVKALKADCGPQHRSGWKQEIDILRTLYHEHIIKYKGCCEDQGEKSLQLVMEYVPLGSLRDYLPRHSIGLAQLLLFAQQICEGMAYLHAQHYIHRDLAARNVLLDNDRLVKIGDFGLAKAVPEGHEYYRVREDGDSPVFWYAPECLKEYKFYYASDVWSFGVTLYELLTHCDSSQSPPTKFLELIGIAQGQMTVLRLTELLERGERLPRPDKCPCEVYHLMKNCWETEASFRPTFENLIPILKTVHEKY
In short: (§1)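 Compounds are serially diluted 1:10 in DMSO and tested in duplicate at 1% final DMSO. Each recombinant catalytic domain phosphorylates the Tyr6 FRET peptide with ATP for 1 h at room temperature, then a site-specific protease cleaves unphosphorylated peptide over 1 h before coumarin/fluorescein emission is read.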

[1] = system: IL4-induced phospho STAT6 formation in Ramos B lymphocytes; test: Inhibition of IL4-induced phospho STAT6 formation in Ramos B lymphocytes (flow cytometry); format: cell-based, human; settings: Homo sapiens; for inhibition at 0.2 µM: 200 nM compound, read-out: % Inhibition of IL-4 Induced STAT6 Phosphorylation 200 nM; for inhibition at 1 µM: 1 μM compound, read-out: % Inhibition of IL-4 Induced STAT6 Phosphorylation 1 μM
Source text: Similar types of assays can be used to assess JAK inhibitory activity and to determine the degree of selectivity of the particular compound as compared to syk. One means of assaying for such inhibition is detection of the effect of the compounds of the present invention on the upregulation of downstream gene products. In the Ramos/IL4 assay, B-cells are stimulated with the cytokine Interleukin-4 (IL-4) leading to the activation of the JAK/Stat pathway through phosphorylation of the JAK family kinases, JAK1 and JAK3, which in turn phosphorylate and activate the transcription factor Stat-6. […] To study the effect of inhibitors (e.g., the 2,4-substituted pyrimindinediamine compounds described herein) on the JAK1 and JAK3, human Ramos B-cells are stimulated with human IL-4. 10′ post-stimulation, cells are subjected to intracellular flow cytometry to measure the extent of STAT-6 phosphorylation. 20 to 24 hours post-stimulation, cells are stained for upregulation of CD23 and analyzed using flow cytometry.
Inhibition of IL4-induced phospho STAT6 formation was measured by pre-incubating 0.5 million Ramos B lymphocytes (ATCC) with 5 μl compound or DMSO vehicle for 1 hour at 37° C./5% CO2. Cells were activated by addition of 1 ng/ml [f]IL4 (R & D Research Systems) for 10 min at 37° C./5% CO2 and then fixed by addition of 1.6% [f]PFA (Electron Microscopy Services). Following a PBS wash step and permaeabilization with 100% methanol, cells were incubated with ALEXA-conjugated anti-phosphoSTAT6 (Y641) antibody (BD 612600). The extent of cell associated-fluorescence was determined by flow cytomentry and data expressed as mean fluorescent intensity. The extent of inhibition of the IL4-induced signal was then calculated.

JAK2 = target: T2, JAK2 (Homo sapiens, UniProt O60674); test: Z'-LYTE kinase assay, JAK2 tyrosine phosphorylation activity; format: biochemical
T2 construct: 5 μl of catalytic domain recombinant Kinase enzyme+Tyr peptide substrate (Invitrogen, Calif.); purchased Invitrogen
In short: as §1

JAK1 = target: T3, JAK1 (Homo sapiens, UniProt P23458); test: Z'-LYTE kinase assay, JAK1 tyrosine phosphorylation activity; format: biochemical; settings: read-out: JAK 1 IC50
T3 construct: 5 μl of catalytic domain recombinant Kinase enzyme+Tyr peptide substrate (Invitrogen, Calif.); purchased Invitrogen
In short: as §1

JAK3 = target: T4, JAK3 (Homo sapiens, UniProt P52333); test: Z'-LYTE kinase assay, JAK3 tyrosine phosphorylation activity; format: biochemical
T4 construct: 5 μl of catalytic domain recombinant Kinase enzyme+Tyr peptide substrate (Invitrogen, Calif.); purchased Invitrogen
In short: as §1

T4 sequence (P52333 822-1111 limits assumed): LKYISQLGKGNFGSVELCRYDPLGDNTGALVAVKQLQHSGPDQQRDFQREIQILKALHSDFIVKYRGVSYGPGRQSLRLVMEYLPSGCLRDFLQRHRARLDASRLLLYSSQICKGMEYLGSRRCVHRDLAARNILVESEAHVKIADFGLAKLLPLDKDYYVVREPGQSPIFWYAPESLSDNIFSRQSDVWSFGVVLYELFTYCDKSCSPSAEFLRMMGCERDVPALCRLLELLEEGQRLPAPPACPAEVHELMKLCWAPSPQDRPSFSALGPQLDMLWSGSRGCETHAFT
T2 sequence (O60674 849-1124 limits assumed): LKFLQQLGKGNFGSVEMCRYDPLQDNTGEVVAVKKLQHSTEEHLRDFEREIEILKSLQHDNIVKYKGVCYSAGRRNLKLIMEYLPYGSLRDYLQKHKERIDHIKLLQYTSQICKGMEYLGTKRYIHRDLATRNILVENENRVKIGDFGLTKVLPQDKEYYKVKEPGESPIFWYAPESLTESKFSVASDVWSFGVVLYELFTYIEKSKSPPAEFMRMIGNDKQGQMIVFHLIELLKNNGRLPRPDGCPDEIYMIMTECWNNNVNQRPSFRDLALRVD
T3 sequence (P23458 875-1153 limits assumed): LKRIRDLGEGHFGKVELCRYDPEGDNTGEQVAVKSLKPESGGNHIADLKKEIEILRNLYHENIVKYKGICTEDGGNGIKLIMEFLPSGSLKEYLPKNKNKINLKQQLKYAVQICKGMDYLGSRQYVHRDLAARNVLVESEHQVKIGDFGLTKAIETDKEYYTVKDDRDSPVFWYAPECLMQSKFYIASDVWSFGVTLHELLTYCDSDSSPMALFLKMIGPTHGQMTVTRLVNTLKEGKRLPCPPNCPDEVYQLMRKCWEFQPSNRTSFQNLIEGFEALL

SMILES	IC50 (Syk)	IC50 (TYK2)	inhibition at 0.2 µM [1]	inhibition at 1 µM [1]	IC50 (JAK2)	IC50 (JAK1)	IC50 (JAK3)
CNc1nc(Nc2cccc(NC(C)=O)c2)ncc1C(N)=O [Example 8, 2-(3-acetamidophenylamino)-4-(methylamino)pyrimidine-5-carboxamide]	100 to 1000 nM	–	–	–	–	–	–
CC(=O)Nc1cccc(Nc2ncc(C(N)=O)c(NCC3CC3)n2)c1 [Example 12, 2-(3-acetamidophenylamino)-4-(cyclopropylmethylamino)pyrimidine-5-carboxamide]	100 to 1000 nM	–	–	–	–	–	–
COCCCNc1nc(Nc2cccc(NC(C)=O)c2)ncc1C(N)=O [Example 16, 2-(3-acetamidophenylamino)-4-(3-methoxypropylamino)pyrimidine-5-carboxamide]	100 to 1000 nM	–	–	–	–	–	–
C[C@@H](Nc1nc(Nc2ccc(Cl)c(NC(=O)C3CC3)c2)ncc1C(N)=O)c1ccccc1 [Example 110, (R)-2-(4-chloro-3-(cyclopropanecarboxamido)phenylamino)-4-(1-phenylethylamino)pyrimidine-5-carboxamide]	–	100 to 1000 nM	48.3%	97.7%	100 to 1000 nM	100 to 1000 nM	10 to 100 nM
CCNC(=O)Nc1cc(Nc2ncc(C(N)=O)c(NCc3ccccc3)n2)ccc1Cl [Example 153]	–	10 to 100 nM	22.3%	51.7%	100 to 1000 nM	100 to 1000 nM	10 to 100 nM
CNC(=O)Nc1cc(Nc2ncc(C(N)=O)c(NCc3ccccc3F)n2)ccc1Cl [Example 169, 2-(4-chloro-3-(3-methylureido)phenylamino)-4-(2-fluorobenzylamino)pyrimidine-5-carboxamide]	–	10 to 100 nM	3.3%	16.7%	100 to 1000 nM	100 to 1000 nM	1 to 10 nM
CC(=O)Nc1cc(Nc2ncc(C(N)=O)c(NCc3ccccc3)n2)ccc1OCCN1CCCC1 [Example 244, 2-(3-acetamido-4-(2-(pyrrolidin-1-yl)ethoxy)phenylamino)-4-(benzylamino)pyrimidine-5-carboxamide]	–	1 to 10 nM	51.3%	94.7%	10 to 100 nM	10 to 100 nM	< 1 nM
NC(=O)c1cnc(Nc2ccc(Cl)c(NC(=O)N3CCOCC3)c2)nc1NCc1ccccc1 [Example 182, N-(5-(4-(benzylamino)-5-carbamoylpyrimidin-2-ylamino)-2-chlorophenyl)morpholine-4-carboxamide]	–	1 to 10 nM	42.3%	89%	10 to 100 nM	10 to 100 nM	1 to 10 nM
NC(=O)c1cnc(Nc2cccc(NC(=O)N3CCCC3)c2)nc1NCc1cccc(F)c1 [Example 179, 4-(3-fluorobenzylamino)-2-(3-(pyrrolidine-1-carboxamido)phenylamino)pyrimidine-5-carboxamide]	–	10 to 100 nM	11.3%	10.7%	10 to 100 nM	10 to 100 nM	1 to 10 nM
CN(C)C(=O)Nc1cc(Nc2ncc(C(N)=O)c(NCc3ccccc3)n2)ccc1Cl [Example 196, 4-(benzylamino)-2-(4-chloro-3-(3,3-dimethylureido)phenylamino)pyrimidine-5-carboxamide]	–	10 to 100 nM	8.3%	65%	100 to 1000 nM	100 to 1000 nM	1 to 10 nM
NC(=O)c1cnc(Nc2ccc(F)c(NC(=O)N3CCC3)c2)nc1NCc1ccccc1 [Example 234, 2-(3-(azetidine-1-carboxamido)-4-fluorophenylamino)-4-(benzylamino)pyrimidine-5-carboxamide]	–	10 to 100 nM	34.3%	77%	10 to 100 nM	10 to 100 nM	1 to 10 nM
CC(=O)Nc1cccc(Nc2ncc(C(N)=O)c(NCc3ccccc3F)n2)c1 [Example 100, 2-(3-acetamidophenylamino)-4-(2-fluorobenzylamino)pyrimidine-5-carboxamide]	–	1 to 10 nM	43.5%	95.3%	10 to 100 nM	10 to 100 nM	1 to 10 nM
NC(=O)c1cnc(Nc2cccc(NC(=O)N3CCCCC3)c2)nc1NCc1ccccc1 [Example 218, 4-(benzylamino)-2-(3-(piperidine-1-carboxamido)phenylamino)pyrimidine-5-carboxamide]	–	1 to 10 nM	28.7%	76%	10 to 100 nM	10 to 100 nM	1 to 10 nM
CNC(=O)Nc1cc(Nc2ncc(C(N)=O)c(N[C@H](C)c3ccccc3)n2)ccc1Cl [Example 132, (R)-2-(4-chloro-3-(3-methylureido)phenylamino)-4-(1-phenylethylamino)pyrimidine-5-carboxamide]	–	100 to 1000 nM	7.5%	53.7%	100 to 1000 nM	100 to 1000 nM	10 to 100 nM
NC(=O)c1cnc(Nc2cccc(NC(=O)[C@H]3CCCO3)c2)nc1NCc1ccccc1 [Example 202, (R)-4-(benzylamino)-2-(3-(tetrahydrofuran-2-carboxamido)phenylamino)pyrimidine-5-carboxamide]	–	1 to 10 nM	23.5%	48.5%	10 to 100 nM	10 to 100 nM	1 to 10 nM
CNC(=O)Nc1cc(Nc2ncc(C(N)=O)c(NCc3ccccc3)n2)ccc1OC [Example 164, 4-(benzylamino)-2-(4-methoxy-3-(3-methylureido)phenylamino)pyrimidine-5-carboxamide]	–	1 to 10 nM	34.7%	68.7%	10 to 100 nM	10 to 100 nM	1 to 10 nM
CC(=O)Nc1cc(Nc2ncc(C(N)=O)c(NCc3ccccc3)n2)ccc1F [Example 156, 2-(3-acetamido-4-fluorophenylamino)-4-(benzylamino)pyrimidine-5-carboxamide]	–	1 to 10 nM	28%	71.3%	10 to 100 nM	10 to 100 nM	1 to 10 nM
NC(=O)c1cnc(Nc2cccc(NC(=O)N3CCCC3)c2)nc1NCc1ccccc1F [Example 168, 4-(2-fluorobenzylamino)-2-(3-(pyrrolidine-1-carboxamido)phenylamino)pyrimidine-5-carboxamide]	–	1 to 10 nM	54%	92%	10 to 100 nM	10 to 100 nM	1 to 10 nM
C[C@@H](Nc1nc(Nc2ccc(Cl)c(NC(=O)N3CCCC3)c2)ncc1C(N)=O)c1ccccc1 [Example 221, (R)-2-(4-chloro-3-(pyrrolidine-1-carboxamido)phenylamino)-4-(1-phenylethylamino)pyrimidine-5-carboxamide]	–	100 to 1000 nM	2.3%	6.3%	100 to 1000 nM	> 1000 nM	10 to 100 nM
NC(=O)c1cnc(Nc2ccc(Cl)c(NC(=O)N3CCCC3)c2)nc1NCc1ccccc1F [Example 170, 2-(4-chloro-3-(pyrrolidine-1-carboxamido)phenylamino)-4-(2-fluorobenzylamino)pyrimidine-5-carboxamide]	–	10 to 100 nM	5.7%	53.7%	> 1000 nM	> 1000 nM	1 to 10 nM
CC(C)[C@H](C)Nc1nc(Nc2ccc(Cl)c(NC(=O)N3CCCC3)c2)ncc1C(N)=O [Example 248, (S)-2-(4-chloro-3-(pyrrolidine-1-carboxamido)phenylamino)-4-(3-methylbutan-2-ylamino)pyrimidine-5-carboxamide]	–	10 to 100 nM	61.3%	94.7%	> 1000 nM	10 to 100 nM	10 to 100 nM
